Experimental data from ChEMBL document CHEMBL1146652, “Synthesis and CB1 receptor activities of novel arachidonyl alcohol derivatives” (Bioorg Med Chem Lett, 2004).

Assays:
[1] = target: Cannabinoid receptor 1 (Rattus norvegicus) (UniProt P20272); experiment: Maximal response of cannabinoid receptor to compound was evaluated using [35S]GTP-gamma-S-binding studies; type: functional
[2] = target: Cannabinoid receptor 1 (Rattus norvegicus, UniProt P20272); experiment: Cannabinoid receptor 1 dependent activity of compound was evaluated by using [35S]GTP-gamma-S-binding studies; type: functional
Chain of Cannabinoid receptor 1 (P20272 whole entry): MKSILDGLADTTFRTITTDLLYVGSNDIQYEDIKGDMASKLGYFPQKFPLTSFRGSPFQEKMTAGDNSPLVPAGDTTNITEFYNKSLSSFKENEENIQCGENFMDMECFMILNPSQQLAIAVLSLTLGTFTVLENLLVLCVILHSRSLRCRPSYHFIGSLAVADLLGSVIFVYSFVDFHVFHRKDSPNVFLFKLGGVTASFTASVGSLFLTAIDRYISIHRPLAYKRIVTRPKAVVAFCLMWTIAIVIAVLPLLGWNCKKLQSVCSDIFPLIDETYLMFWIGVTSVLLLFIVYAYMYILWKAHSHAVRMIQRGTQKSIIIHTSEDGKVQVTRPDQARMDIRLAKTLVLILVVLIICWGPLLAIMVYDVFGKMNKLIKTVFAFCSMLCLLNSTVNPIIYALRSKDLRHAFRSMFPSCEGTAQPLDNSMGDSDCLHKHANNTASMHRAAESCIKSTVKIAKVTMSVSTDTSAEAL

Chain of Cannabinoid receptor 1 (Rattus norvegicus) (P20272 whole entry): as above

CCCCC/C=C\C/C=C\C/C=C\C/C=C\CCCCOC(=O)[C@@H](O)CO
Emax [1]: 278%
EC50 [2]: 39.8 µM

CCCCC/C=C\C/C=C\C/C=C\C/C=C\CCCC(=O)NCCO
Emax [1]: 380%

CCCCC/C=C\C/C=C\C/C=C\C/C=C\CCCCOC(=O)[C@H](O)CO
Emax [1]: 301%
EC50 [2]: 25.1 µM
